# In paper PMC11120720, “Linking Variability in Phytochemical Composition with Safety Profile of Thymus carnosus Boiss. Extracts: Effect of Major Compounds and Evaluation of Markers of Oxidative Stress and Cell Death” (International Journal of Molecular Sciences, 2024):
# Tests used:
# HepG2 cells [1] = conditions: 27-108 µM; cited from earlier work
# Caco-2 cells [2] = conditions: cited from earlier work
# HepG2 cells [3] = test: Mitochondrial membrane potential (JC-1, flow cytometry), HepG2; assay type: cell-based, human; conditions: positive control, 5 µM
# Protocol: (§1) Flow cytometry was used to analyze the effect of T. carnosus extracts on intracellular ROS, modulation of mitochondrial membrane potential (MMP), cell cycle arrest, and apoptotic/necrotic cell death induction.
# (§2) Both one- and two-color assays were performed using a BD Accuri™ C6 cytometer (Becton Dickinson, Franklin Lakes, NJ, USA), and 10,000 gated events were collected from each sample [1]. For flow cytometry assays, cells were handled as described previously but seeded at a density 5 × 10^4 cells/mL (750 μL/well) in 12-well plates. Caco-2 and HepG2 cells were incubated for 24 h with the extracts (100 µg/mL) or individual phytochemicals (50 µM) diluted in FBS-free culture media h. After incubation, test solutions were removed; the cells were washed with PBS and detached from the plates using trypsin-EDTA. Once transferred to centrifuge tubes, the cells were centrifuged (bench micro-centrifuge; 3000 rpm; 3 min), the supernatant was discarded, and a new wash cycle was performed. The cells were then equally divided for each assay. A negative control was used in all assays consisting of nonexposed cells incubated only with culture media.
# (§3) Mitochondrial membrane potential (MMP) was evaluated using 5,5″,6,6″-tetrachloro-1,1″,3,3″-tetraethylbenzimidazolylcarbocyanineiodide (JC-1). Cells were processed as described for DCFDA but incubated with 200 µL of JC-1 (2 µM, in FBS-free DMEM) for 20 min (37 °C, in the dark).
# Caco-2 cells [4] = conditions: positive control, 5 µM
# Protocol: as §1, §2, §3
compound,measurement,setting,value
COc1cc(/C=C/C(=O)CC(=O)/C=C/c2ccc(O)c(OC)c2)ccc1O [curcumin],"MMP modulation, HepG2",HepG2 cells [1],"mitochondrial membrane hyperpolarization in HepG2 cells, followed by depolarization"
O=c1c(O[C@@H]2O[C@H](CO)[C@@H](O)[C@H](O)[C@H]2O)c(-c2ccc(O)c(O)c2)oc2cc(O)cc(O)c12 [quercetin-3-O-glucoside],cytotoxicity in Caco-2 cells relative to quercetin aglycone,Caco-2 cells [2],lower cytotoxicity in Caco-2 cells than aglycone
O=C(O)[C@H]1O[C@@H](Oc2c(-c3ccc(O)c(O)c3)oc3cc(O)cc(O)c3c2=O)[C@H](O)[C@@H](O)[C@@H]1O [quercetin-3-O-glucuronide],cytotoxicity in Caco-2 cells relative to quercetin aglycone,Caco-2 cells [2],lower cytotoxicity in Caco-2 cells than aglycone
"N#CC(C#N)=NNc1ccc(OC(F)(F)F)cc1 [FCCP, carbonyl cyanide p-trifluoromethoxyphenylhydrazone]","JC-1 FL2/FL1 ratio normalized by negative control, HepG2",HepG2 cells [3],0.10 ± 0.01
same,"reduction in MMP, HepG2",HepG2 cells [3],~ 90%
same,"JC-1 FL2/FL1 ratio normalized by negative control, Caco-2",Caco-2 cells [4],0.06 ± 0.01
same,"reduction in MMP, Caco-2",Caco-2 cells [4],~ 94%
